In patent publication US5648365A, “Diarylalkyl piperidines useful as multi-drug resistant tumor agents” (Merrell Pharmaceuticals Inc., priority 1996, dated 1997):
pEC50, pIC50: −log10 of the molar value.

What was measured:
MDR tumor cells [1] = assay: Cellular toxicity: inhibition of cell growth, colorimetric MTT assay; type: cell-based; details: concentration that inhibits cell growth by 50%, 72 hr
Method: (§1) A colorimetric assay is employed to determine the synergy between test compounds of the invention and vinblastine or adriamycin against the growth of MDR tumor cells. The assay is based on the ability of live tumor cells to reduce a tetrazoline compound, MTT (3-(4,5-dimethyl)[…])-2,5-diphenyl tetrazolium bromide, to a blue formazan product. Both the test compound and cytotoxic drug (vinblastine or adriamycin) were added to the cells growing in wells of a 96-well plate at different combinations of concentration. The cells were allowed to grow for 72 hr and, at the end of incubation, stained with MTT for 3 hr. The blue formazan product which developed, was dissolved with DMSO and the color intensity was recorded in a spectrophotometer. Based on the data, an isobologram analysis was performed. MDR activity (ED50 : μM) represents the concentration of the compound required to lower the IC50 value of vinblastine by 50% when both the compounds were added to the medium together. Cellular toxicity (IC50 : μM) represents concentration of the compound that inhibit cell growth by 50%. Activity index is the ratio of toxicity and MDR activity.

MDR tumor cells [2] = assay: MDR activity: synergy with vinblastine, colorimetric MTT assay; type: cell-based; details: for pEC50: concentration required to lower the IC50 of vinblastine by 50% when both added together, 72 hr, MTT, read-out: MDR Activity ED50; for Activity Index: ratio of toxicity (IC50) and MDR activity (ED50), 4320 min
Method: as §1

## COc1cc(CC(=O)N2CCCCC2CC(c2ccccc2)c2ccccc2)cc(OC)c1OC (stereo not drawn) [Example 1, 1-[2-(2,2-Diphenyl-Ethyl)-Piperidin-1-yl]-2-(3,4,5-Trimethoxy-Phenyl)-Ethanone]
MDR tumor cells [1]
  pIC50: 4.47
MDR tumor cells [2]
  pEC50: 6.51
  Activity Index: 109.0

## COc1ccccc1CC(=O)N1CCCCC1CC(c1ccccc1)c1ccccc1 (stereo not drawn) [Example 2, 1-[2-(2,2-Diphenyl-Ethyl)-Piperidin-1-yl]-2(2-Methoxy-Phenyl)-Ethanone]
MDR tumor cells [1]
  pIC50: 4.43
MDR tumor cells [2]
  pEC50: 5.94
  Activity Index: 32.0

## O=C(Cc1ccc2c(c1)OCO2)N1CCCCC1CC(c1ccccc1)c1ccccc1 (stereo not drawn) [Example 3, 2-Benzo[1,3]Dioxol-5-yl-1-[2-(2,2-Diphenylethyl)-Piperidin-1-yl]-Ethanone]
MDR tumor cells [1]
  pIC50: 4.41
MDR tumor cells [2]
  pEC50: 5.92
  Activity Index: 32.5

## COc1ccc(CCC(=O)N2CCCCC2CC(c2ccccc2)c2ccccc2)cc1OC (stereo not drawn) [Example 6, 3-(3,4-Dimethoxy-Phenyl)-1-[2-(2,2-Diphenylethyl)-Piperidin-1-yl]-Propan-1-one]
MDR tumor cells [1]
  pIC50: 4.67
MDR tumor cells [2]
  pEC50: 6.34
  Activity Index: 47.0

## COc1cc(CC(=O)N2CCCCC2C(c2ccccc2)c2ccccc2)cc(OC)c1OC (stereo not drawn) [Example 9]
MDR tumor cells [1]
  pIC50: 4.52
MDR tumor cells [2]
  pEC50: 6.15
  Activity Index: 43.5
